4 molecules from ChEMBL document CHEMBL5291721, “A preclinical secondary pharmacology resource illuminates target-adverse drug reaction associations of marketed drugs” (Nat Commun, 2023) can be followed below.

Each structure is given as a SMILES string.

For experiment [1], the target named is Synaptic vesicular amine transporter (Rattus norvegicus, UniProt Q01827). The experiment is classed as functional.
Experiment [2] concerns the target Sodium channel protein type 5 subunit alpha (Homo sapiens, UniProt Q14524). The experiment is classed as functional, cell-based.
Experiment [3] addresses 5-hydroxytryptamine receptor 2B (Homo sapiens, UniProt P41595).
Experiment [4] addresses T1, Muscarinic acetylcholine receptor M1 (Homo sapiens, UniProt P11229).
T1 sequence (P11229 whole entry): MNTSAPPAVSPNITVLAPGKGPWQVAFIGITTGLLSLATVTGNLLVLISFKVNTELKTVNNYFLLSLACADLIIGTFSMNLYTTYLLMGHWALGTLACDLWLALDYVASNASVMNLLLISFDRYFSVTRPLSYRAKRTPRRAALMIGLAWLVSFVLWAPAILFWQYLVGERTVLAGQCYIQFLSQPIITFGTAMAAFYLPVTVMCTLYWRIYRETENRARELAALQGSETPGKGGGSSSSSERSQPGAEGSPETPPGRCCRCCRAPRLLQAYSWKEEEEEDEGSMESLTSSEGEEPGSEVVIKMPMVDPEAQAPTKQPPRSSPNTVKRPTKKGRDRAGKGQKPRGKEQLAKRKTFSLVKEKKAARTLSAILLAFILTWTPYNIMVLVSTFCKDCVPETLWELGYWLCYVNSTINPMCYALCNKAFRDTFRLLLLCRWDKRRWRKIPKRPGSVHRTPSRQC
The experiment is classed as functional, cell-based.

Experiment [5] addresses T1, Muscarinic acetylcholine receptor M1. It counts as functional, cell-based. This is another data set of the same source.
Experiment [6] deals with T2, Thromboxane A2 receptor (Homo sapiens, UniProt P21731).
T2 sequence (P21731 whole entry): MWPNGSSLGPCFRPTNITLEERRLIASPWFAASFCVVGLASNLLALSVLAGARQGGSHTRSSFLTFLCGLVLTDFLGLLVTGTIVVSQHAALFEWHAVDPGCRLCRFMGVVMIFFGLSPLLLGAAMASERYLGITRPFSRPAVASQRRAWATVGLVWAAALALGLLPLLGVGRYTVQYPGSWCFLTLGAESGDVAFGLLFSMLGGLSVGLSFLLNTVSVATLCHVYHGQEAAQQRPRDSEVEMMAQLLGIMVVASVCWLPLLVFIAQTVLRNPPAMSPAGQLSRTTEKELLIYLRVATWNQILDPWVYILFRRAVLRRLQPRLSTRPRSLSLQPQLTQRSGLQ
The experiment is classed as functional, cell-based.

The target of experiment [7] is Rod cGMP-specific 3',5'-cyclic phosphodiesterase subunit alpha (Homo sapiens, UniProt P16499). It counts as functional.
Experiment [8] addresses T3, Muscarinic acetylcholine receptor M5 (Homo sapiens, UniProt P08912).
T3 sequence (P08912 whole entry): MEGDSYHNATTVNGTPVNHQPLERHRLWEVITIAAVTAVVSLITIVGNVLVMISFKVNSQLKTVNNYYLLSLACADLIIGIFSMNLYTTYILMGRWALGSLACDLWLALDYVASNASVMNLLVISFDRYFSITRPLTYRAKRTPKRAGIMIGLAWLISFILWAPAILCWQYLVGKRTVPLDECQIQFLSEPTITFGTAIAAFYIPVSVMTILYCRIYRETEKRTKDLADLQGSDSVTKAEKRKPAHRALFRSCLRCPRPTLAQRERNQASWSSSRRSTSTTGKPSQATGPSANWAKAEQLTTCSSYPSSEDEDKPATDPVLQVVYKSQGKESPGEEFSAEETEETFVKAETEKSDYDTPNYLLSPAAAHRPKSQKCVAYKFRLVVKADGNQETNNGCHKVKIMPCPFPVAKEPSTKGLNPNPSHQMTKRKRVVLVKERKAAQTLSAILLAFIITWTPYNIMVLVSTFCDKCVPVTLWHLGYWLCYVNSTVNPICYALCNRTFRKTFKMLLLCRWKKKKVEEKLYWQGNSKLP

The target in experiment [9] is T4, Substance-K receptor (Homo sapiens, UniProt P21452).
T4 sequence (P21452 whole entry): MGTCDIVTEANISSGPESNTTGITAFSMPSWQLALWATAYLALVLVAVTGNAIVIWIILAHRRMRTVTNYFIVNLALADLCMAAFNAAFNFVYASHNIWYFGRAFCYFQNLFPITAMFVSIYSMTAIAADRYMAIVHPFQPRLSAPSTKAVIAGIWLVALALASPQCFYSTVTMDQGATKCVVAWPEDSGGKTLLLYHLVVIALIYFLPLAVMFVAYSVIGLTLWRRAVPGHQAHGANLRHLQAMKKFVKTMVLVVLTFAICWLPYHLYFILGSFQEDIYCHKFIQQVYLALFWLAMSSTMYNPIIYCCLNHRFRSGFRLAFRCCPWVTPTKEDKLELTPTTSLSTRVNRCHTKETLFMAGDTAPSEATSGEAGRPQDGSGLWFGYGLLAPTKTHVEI

The target of experiment [10] is D(1B) dopamine receptor (Homo sapiens, UniProt P21918).
Also: assay procedure not described here.

Sequence of Synaptic vesicular amine transporter (Q01827 whole entry): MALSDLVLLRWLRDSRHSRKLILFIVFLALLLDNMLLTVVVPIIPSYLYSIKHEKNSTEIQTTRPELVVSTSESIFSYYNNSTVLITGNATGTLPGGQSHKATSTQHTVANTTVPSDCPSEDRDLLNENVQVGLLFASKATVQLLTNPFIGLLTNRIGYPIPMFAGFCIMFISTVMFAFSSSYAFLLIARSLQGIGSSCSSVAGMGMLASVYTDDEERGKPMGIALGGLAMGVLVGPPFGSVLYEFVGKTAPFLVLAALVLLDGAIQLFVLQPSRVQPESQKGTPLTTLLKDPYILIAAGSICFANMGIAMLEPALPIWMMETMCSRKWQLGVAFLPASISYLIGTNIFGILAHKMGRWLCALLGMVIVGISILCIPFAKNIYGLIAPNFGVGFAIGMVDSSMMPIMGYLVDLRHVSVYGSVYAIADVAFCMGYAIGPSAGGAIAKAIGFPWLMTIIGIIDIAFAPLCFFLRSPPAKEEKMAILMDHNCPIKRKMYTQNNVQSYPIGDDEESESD
Sequence of Sodium channel protein type 5 subunit alpha (Q14524 whole entry): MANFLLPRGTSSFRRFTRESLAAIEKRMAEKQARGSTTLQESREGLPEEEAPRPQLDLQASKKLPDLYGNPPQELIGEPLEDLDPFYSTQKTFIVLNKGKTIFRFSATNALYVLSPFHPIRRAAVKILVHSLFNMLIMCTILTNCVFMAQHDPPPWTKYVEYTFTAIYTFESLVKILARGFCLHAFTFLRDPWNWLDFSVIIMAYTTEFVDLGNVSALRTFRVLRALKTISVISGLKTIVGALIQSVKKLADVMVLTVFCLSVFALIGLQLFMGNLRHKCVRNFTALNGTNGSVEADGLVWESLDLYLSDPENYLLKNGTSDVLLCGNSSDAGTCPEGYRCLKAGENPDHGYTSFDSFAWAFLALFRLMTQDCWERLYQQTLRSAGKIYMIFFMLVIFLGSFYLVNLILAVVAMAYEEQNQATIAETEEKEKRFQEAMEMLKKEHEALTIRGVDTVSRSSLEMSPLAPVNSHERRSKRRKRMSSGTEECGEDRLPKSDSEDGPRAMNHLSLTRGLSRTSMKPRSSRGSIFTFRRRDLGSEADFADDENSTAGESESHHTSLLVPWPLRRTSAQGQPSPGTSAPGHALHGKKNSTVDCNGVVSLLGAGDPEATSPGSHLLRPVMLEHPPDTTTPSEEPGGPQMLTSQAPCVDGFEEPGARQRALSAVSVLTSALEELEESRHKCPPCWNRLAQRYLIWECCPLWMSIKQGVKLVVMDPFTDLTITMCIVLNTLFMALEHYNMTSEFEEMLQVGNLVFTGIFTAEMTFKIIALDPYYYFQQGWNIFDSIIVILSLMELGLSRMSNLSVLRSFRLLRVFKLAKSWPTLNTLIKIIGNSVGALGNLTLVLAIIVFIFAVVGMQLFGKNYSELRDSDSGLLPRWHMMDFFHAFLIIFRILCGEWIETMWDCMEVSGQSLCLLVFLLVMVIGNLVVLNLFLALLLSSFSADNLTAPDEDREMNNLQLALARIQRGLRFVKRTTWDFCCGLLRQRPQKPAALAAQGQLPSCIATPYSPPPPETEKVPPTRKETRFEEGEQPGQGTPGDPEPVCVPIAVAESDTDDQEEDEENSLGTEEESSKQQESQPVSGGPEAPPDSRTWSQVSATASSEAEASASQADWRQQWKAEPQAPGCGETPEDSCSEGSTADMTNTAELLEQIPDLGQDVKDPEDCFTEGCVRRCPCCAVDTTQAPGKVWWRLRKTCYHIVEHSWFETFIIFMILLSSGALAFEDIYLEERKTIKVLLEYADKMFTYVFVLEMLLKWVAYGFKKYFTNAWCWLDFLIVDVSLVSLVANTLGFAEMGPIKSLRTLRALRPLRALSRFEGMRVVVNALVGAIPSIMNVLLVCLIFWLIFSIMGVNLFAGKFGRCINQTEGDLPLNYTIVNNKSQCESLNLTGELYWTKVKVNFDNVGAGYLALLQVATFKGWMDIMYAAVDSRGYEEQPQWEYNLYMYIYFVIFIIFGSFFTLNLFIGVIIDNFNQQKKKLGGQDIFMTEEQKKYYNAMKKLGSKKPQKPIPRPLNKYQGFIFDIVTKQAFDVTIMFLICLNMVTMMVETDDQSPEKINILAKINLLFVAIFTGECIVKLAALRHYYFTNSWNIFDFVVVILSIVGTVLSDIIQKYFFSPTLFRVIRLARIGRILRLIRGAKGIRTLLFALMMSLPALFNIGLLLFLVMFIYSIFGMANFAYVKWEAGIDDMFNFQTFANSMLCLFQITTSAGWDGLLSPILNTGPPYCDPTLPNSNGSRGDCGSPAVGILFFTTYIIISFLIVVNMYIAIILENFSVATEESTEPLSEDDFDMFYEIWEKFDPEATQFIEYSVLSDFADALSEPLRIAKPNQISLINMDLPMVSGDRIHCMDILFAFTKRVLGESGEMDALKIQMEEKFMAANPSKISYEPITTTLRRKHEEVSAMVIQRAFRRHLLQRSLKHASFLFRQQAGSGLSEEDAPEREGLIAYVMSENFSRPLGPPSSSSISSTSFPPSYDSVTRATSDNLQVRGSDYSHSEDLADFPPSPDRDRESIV
Sequence of Rod cGMP-specific 3',5'-cyclic phosphodiesterase subunit alpha (P16499 whole entry): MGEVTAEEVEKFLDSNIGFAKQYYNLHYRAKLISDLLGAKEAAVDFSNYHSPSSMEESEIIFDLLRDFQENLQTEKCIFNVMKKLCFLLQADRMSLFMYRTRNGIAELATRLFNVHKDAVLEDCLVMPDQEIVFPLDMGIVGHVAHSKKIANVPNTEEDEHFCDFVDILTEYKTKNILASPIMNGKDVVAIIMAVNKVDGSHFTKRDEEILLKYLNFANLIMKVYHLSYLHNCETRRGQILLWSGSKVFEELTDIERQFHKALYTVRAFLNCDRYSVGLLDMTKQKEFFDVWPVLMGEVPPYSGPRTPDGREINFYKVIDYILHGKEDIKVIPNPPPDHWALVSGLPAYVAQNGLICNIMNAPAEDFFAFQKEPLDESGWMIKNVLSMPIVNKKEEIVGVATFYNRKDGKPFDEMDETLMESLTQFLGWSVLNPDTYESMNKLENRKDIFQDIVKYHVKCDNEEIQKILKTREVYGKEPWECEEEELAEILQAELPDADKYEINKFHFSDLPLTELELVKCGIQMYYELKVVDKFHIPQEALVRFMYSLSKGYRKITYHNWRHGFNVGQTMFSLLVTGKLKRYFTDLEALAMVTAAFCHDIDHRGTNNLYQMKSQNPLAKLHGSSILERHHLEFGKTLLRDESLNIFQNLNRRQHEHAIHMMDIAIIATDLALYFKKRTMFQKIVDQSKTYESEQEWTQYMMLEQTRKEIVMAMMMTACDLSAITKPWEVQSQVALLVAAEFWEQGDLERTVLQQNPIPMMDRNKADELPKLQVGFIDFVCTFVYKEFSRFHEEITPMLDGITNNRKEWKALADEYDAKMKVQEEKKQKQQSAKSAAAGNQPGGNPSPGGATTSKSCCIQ
Sequence of 5-hydroxytryptamine receptor 2B (P41595 whole entry): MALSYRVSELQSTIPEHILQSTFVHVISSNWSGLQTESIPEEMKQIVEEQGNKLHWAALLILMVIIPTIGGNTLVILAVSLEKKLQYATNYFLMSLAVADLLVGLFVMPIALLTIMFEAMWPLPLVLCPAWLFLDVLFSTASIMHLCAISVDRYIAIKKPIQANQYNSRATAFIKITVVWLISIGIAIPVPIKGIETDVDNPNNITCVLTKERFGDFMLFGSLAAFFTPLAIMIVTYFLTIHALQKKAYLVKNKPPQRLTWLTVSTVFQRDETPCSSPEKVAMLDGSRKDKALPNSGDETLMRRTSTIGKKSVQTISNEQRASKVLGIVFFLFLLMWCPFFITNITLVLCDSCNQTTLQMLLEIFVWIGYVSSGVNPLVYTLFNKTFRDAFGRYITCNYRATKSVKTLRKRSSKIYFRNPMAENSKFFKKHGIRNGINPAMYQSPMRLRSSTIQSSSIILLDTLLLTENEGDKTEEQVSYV
Sequence of D(1B) dopamine receptor (P21918 whole entry): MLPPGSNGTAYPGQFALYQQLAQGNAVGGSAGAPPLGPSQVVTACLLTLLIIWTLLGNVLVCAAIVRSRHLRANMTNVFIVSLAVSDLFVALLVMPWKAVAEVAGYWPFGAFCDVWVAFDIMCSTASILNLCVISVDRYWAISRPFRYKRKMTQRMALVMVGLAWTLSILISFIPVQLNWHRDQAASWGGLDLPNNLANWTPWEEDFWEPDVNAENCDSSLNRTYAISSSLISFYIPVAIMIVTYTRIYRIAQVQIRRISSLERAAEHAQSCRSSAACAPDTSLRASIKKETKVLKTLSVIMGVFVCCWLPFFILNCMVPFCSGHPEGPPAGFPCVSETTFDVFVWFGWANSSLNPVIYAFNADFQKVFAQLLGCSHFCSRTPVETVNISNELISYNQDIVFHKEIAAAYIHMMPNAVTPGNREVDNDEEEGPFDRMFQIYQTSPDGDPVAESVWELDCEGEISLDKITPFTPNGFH

For the molecule `CC[C@@H](C(N)=O)N1CCCC1=O`, the AC50 (as a rule, the midpoint of the concentration-response curve, whichever way the signal moves) in experiment [1] is over 30 µM; in experiment [2], over 50 µM.
As for `C=CCN1C[C@H](C(=O)N(CCCN(C)C)C(=O)NCC)C[C@@H]2c3cccc4[nH]cc(c34)C[C@H]21` [CABERGOLINE], in experiment [3], the AC50 was 0.0148 µM.
Take `NC1CCN(c2c(F)cc3c(=O)c(C(=O)O)cn(C4CC4)c3c2Cl)C1` (stereo not given) [CLINAFLOXACIN]: the AC50 was 40 µM in experiment [4] and over 300 µM in experiment [5].
In the case of `CCOc1ccccc1OCC1CNCCO1` (stereo not given) [VILOXAZINE], the AC50 in experiment [6] is over 30 µM; in experiment [7], over 10 µM; in experiment [8], over 10 µM; in [9], over 10 µM; in [10], over 10 µM.
